Assay results as given in ChEMBL document CHEMBL1150665, “Screening of ubiquitous plant constituents for COX-2 inhibition with a scintillation proximity based assay” (J Nat Prod, 2002).
Active and inactive are the calls of the source. The calls are words filed in the database; no cut-off is given here.

T1: Prostaglandin G/H synthase 2 (Homo sapiens, UniProt P35354)
T1 sequence (P35354 whole entry): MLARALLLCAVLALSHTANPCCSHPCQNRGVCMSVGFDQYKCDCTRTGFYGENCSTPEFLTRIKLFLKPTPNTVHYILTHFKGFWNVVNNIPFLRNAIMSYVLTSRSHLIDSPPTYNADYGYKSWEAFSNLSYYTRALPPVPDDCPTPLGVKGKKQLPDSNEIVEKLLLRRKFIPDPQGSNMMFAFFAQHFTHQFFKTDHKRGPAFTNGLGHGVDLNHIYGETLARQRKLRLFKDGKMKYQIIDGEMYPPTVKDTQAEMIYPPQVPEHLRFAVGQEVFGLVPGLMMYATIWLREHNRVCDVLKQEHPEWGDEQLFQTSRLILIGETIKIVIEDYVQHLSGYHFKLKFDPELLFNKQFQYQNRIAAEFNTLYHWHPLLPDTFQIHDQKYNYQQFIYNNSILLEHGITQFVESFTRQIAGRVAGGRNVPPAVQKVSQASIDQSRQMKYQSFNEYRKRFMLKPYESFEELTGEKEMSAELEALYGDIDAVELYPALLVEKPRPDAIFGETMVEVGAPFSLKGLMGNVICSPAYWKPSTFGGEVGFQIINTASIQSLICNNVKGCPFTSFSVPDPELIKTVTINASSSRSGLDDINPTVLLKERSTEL

T2: Prostaglandin G/H synthase 2 (Homo sapiens) (UniProt P35354)
T2 sequence (whole entry): T1 sequence (P35354 whole entry)

B1: Prostaglandin G/H synthase 2 (Homo sapiens), P35354 (protein)
chain: T1 sequence (P35354 whole entry)

Target: T1, Prostaglandin G/H synthase 2
Assay: Inhibition of COX2
Details: not given

| Molecule | IC50 [µM] |
| --- | --- |
| O=c1cc(-c2ccc(O)c(O)c2)oc2cc(O)cc(O)c12 [LUTEOLIN] | < 349 |

Target: T1, Prostaglandin G/H synthase 2
Details: not given

| Molecule | IC50 [µM] |
| --- | --- |
| C[C@H]1[C@H](C)CC[C@]2(C(=O)O)CC[C@]3(C)C(=CC[C@@H]4[C@@]5(C)CC[C@H](O)C(C)(C)[C@@H]5CC[C@]43C)[C@H]12 [URSOLIC ACID] | 86 |
| c1ccc(-c2ccc(-c3ccccc3)cc2)cc1 [TANNIN PYROGALLOL] | 144 |

Substrate: CCCCC/C=C\C/C=C\C/C=C\C/C=C\CCCC(=O)O
Assay: Activity of COX2
Details: not given

| Molecule | Km [µM] |
| --- | --- |
| B1 | 1 |

Target: T2, Prostaglandin G/H synthase 2 (Homo sapiens)
Assay: Inhibition of COX2 at 10 uM by scintillation proximity assay
Details: not given

| Molecule | Activity |
| --- | --- |
| Oc1cccc(O)c1O | inactive |
| C=CCc1ccc(O)c(OC)c1 | inactive |
| O=C/C=C/c1ccccc1 | inactive |
| O=C(O)/C=C/c1ccc(O)c(O)c1 | inactive |
| O=c1c(O)c(-c2cc(O)c(O)c(O)c2)oc2cc(O)cc(O)c12 | inactive |

Target: T2, Prostaglandin G/H synthase 2 (Homo sapiens)
Details: at 100 µM
Description: Inhibition of COX2 at 100 uM by scintillation proximity assay

| Molecule | inhibition [%] |
| --- | --- |
| O=c1cc(-c2ccc(O)c(O)c2)oc2cc(O)cc(O)c12 [LUTEOLIN] | < 30 |
| O=C(O)c1cc(O)c2c(c1)[C@@H]([C@H]1c3cc(C(=O)O)cc(O)c3C(=O)c3c(O[C@@H]4O[C@H](CO)[C@@H](O)[C@H](O)[C@H]4O)cccc31)c1cccc(O[C@@H]3O[C@H](CO)[C@@H](O)[C@H](O)[C@H]3O)c1C2=O | < 30 |
| O=c1ccc2ccc(O)cc2o1 | < 30 |
| O=C(O)c1cc(O)c(O)c(O)c1 | < 30 |
| O=C(O)[C@]1(O)C[C@H](O)[C@@H](O)[C@@H](O)C1 | < 30 |
| O=c1ccc2ccccc2o1 | < 30 |
| O=c1ccc2cc(O[C@@H]3O[C@H](CO)[C@@H](O)[C@H](O)[C@H]3O)c(O)cc2o1 | < 30 |
| C[n+]1cccc(C(=O)[O-])c1 | < 30 |
| O=c1cc(-c2ccccc2)oc2cc(O)cc(O)c12 | < 30 |
| COc1cc2ccc(=O)oc2cc1O | < 30 |
| O=C1C[C@@H](c2ccc(O)cc2)Oc2cc(O)cc(O)c21 | < 30 |
| Oc1cccc(O)c1O | 57 |
| OC[C@H]1O[C@@H](Oc2ccc(O)cc2)[C@H](O)[C@@H](O)[C@@H]1O | < 30 |
| O=C(O)CCCCC1CCSS1 (stereo not drawn) | < 30 |
| O=C(O)/C=C/c1ccc(O)cc1 | < 30 |
| CN1[C@@H]2C[C@@H](OC(=O)[C@H](CO)c3ccccc3)C[C@H]1[C@@H]1O[C@H]12 | < 30 |
| C=C(C)[C@@H]1CC[C@]2(CO)CC[C@]3(C)[C@H](CC[C@@H]4[C@@]5(C)CC[C@H](O)C(C)(C)[C@@H]5CC[C@]43C)[C@@H]12 | < 30 |
| CC(C)=CCC[C@@H](C)CC=O | < 30 |
| C[C@@H]1O[C@@H](OC[C@H]2O[C@@H](Oc3c(-c4ccc(O)c(O)c4)oc4cc(O)cc(O)c4c3=O)[C@H](O)[C@@H](O)[C@@H]2O)[C@H](O)[C@H](O)[C@H]1O | < 30 |
| CC12CCC(CC1)C(C)(C)O2 | < 30 |
| COc1ccc(C(=O)O)cc1O | < 30 |
| CC[C@H]1CN2CCc3cc(OC)c(OC)cc3[C@@H]2C[C@@H]1C[C@H]1NCCc2cc(OC)c(OC)cc21 | < 30 |

| Molecule | inhibition [%] |
| --- | --- |
| Cc1ccc(C(C)C)c(O)c1 | < 30 |
| O=C/C=C/c1ccccc1 | 45 |
| Oc1ccc(O)cc1 | < 30 |
| C[N+]1(C)CCC[C@H]1C(=O)[O-] | < 30 |
| C=C(C)[C@H]1CC=C(C)CC1 | < 30 |
| O=C(O)/C=C/c1ccc(O)c(O)c1 | 32 |
| CC(C)C1=CC2=CC[C@@H]3[C@](C)(CCC[C@@]3(C)C(=O)O)[C@H]2CC1 | < 30 |
| O=C(O)c1cccnc1 | < 30 |
| O=c1c(O)c(-c2cc(O)c(O)c(O)c2)oc2cc(O)cc(O)c12 | 62 |
| CC12CCC(CC1=O)C2(C)C (stereo not drawn) | < 30 |
| CC(C)=CCC[C@](C)(O)[C@H]1CC=C(C)CC1 | < 30 |
| CC(C)[C@@H]1CC[C@@H](C)C[C@H]1O | < 30 |
| O=C(O)C1=C[C@@H](O)[C@@H](O)[C@H](O)C1 | < 30 |
| O=C(O)C1CCCCN1 (stereo not drawn) | < 30 |
| CN1[C@@H]2CC[C@H]1C[C@@H](OC(=O)C(CO)c1ccccc1)C2 (mixture of isomers) | < 30 |
| COc1cc([C@@H]2c3cc4c(cc3[C@H](O)[C@H]3COC(=O)[C@H]23)OCO4)cc(OC)c1OC | < 30 |
| O=C(/C=C/c1ccc(O)c(O)c1)O[C@@H]1C[C@](O)(C(=O)O)C[C@@H](O)[C@H]1O | < 30 |
| CC(C)=CCCC(C)CCO (racemic) | < 30 |
| C[C@@H]1O[C@@H](O[C@H]2C[C@@H](O)[C@]3(CO)[C@H]4[C@H](O)C[C@]5(C)[C@@H](C6=CC(=O)OC6)CC[C@]5(O)[C@@H]4CC[C@]3(O)C2)[C@H](O)[C@H](O)[C@H]1O | < 30 |
| Cn1c(=O)c2c(ncn2C)n(C)c1=O | < 30 |
| Cn1c(=O)c2[nH]cnc2n(C)c1=O | < 30 |

Target: T1, Prostaglandin G/H synthase 2
Assay: Inhibition of COX2 in LPS-stimulated bone marrow derived mast cells
Details: not given

| Molecule | IC50 [µM] |
| --- | --- |
| O=c1cc(-c2ccc(O)c(O)c2)oc2cc(O)cc(O)c12 [LUTEOLIN] | 8.73 |
